How the values were obtained:
[1] = system: C. elegans fem-1(hc17) sterile adults; test: Adult survival assay of sterile fem-1(hc17) adults on compound-supplemented medium; type: in vivo, Caenorhabditis elegans
Procedure: For survival assays, young adult (day 0) animals were transferred onto fresh medium supplemented with the test compound at a range of concentrations. The compounds were tested at indicated concentrations in the growth medium (below). C. elegans nematodes are surrounded by a thick collagenous cuticle and are therefore relatively impermeable to environmental compounds. […] Survival was scored every 2–3 days as the ability to move in response to a gentle mechanical stimulus. During the first week of adulthood, C. elegans hermaphrodites are reproductively competent and normally produce 200–300 progeny. Since progeny production would complicate survival analysis, these experiments were performed using fem-1(hc17) animals that are sterile due to a spermatogenesis defect.
Resveratrol and picetannol were obtained from commercial sources (Sigma-Aldrich, Inc. and Calbiochem-Novobiochem Corp., respectively). The methoxylated stilbenes pinostilbene, desoxyrhapontigenin, 3-hydroxy-5,4'-dimethoxystilbene and pterostilbene (Figure 1) were synthesized by partial methylation of trans-resveratrol as previously reported. The methoxylated stilbenes were purified by preparative layer chromatography (Merck Silica gel 60 F254; EMD Chemicals Inc., Gibbstown, NJ) using the developing solvent chloroform:methanol (96:4) with 1% formic acid. […] These stilbenes were identified from their ^1H-NMR spectra (Bruker 400 MHz; Bruker, Billerica, MA). All stilbenes were dissolved in ethanol to 25 mg/mL before use. 5-Fluoro-deoxyuracil (Sigma Chemical Co.) was dissolved to 1 mg/mL in sterile water and stored frozen at -20°C until use. For treating C. elegans adults, each compound was added in a 200 μL volume to the top of a 1-day old bacterial lawn grown on NGM medium to final concentrations as indicated. Compounds were allowed 2 hours to diffuse through the agar medium before animals were added.
For survival analyses, synchronized populations of sterile fem-1(hc17) hermaphrodites were obtained by first transferring several fertile hermaphrodites to a fresh plate at 25°C and allowing them to lay eggs for several hours. The parent hermaphrodites were removed and embryos were allowed to develop into sterile adults at 25°C, which takes approximately 48 hours. On the first day of adulthood, referred to as day 0, sterile adults were transferred onto fresh media supplemented with stilbenes at indicated concentrations, and maintained at 25°C. Adult survival was scored every 2–3 days by the animal's ability to move in response to a gentle mechanical stimulus. Statistical analysis of survival was performed using the JMP software package.

[2] = Determination of stilbene uptake (steady-state levels by GC-MS); type: in vivo, Caenorhabditis elegans; details: animals treated for 2 days with 100 μM in the culture medium
Description: The differential bioactivities of methoxylated and hydroxylated stilbenes in C. elegans adults might reflect differences in uptake or bioavailability. In general, intact C. elegans adults take up compounds relatively poorly due to their thick, impermeable cuticle. This impermeability has impeded pharmacodynamic analysis in this organism. However, steady-state levels of compounds can be measured in treated animals to provide one measure of pharmacodynamics. To assess whether differential uptake correlated with bioactivity in C. elegans, steady-state levels for pterostilbene, resveratrol-trimethylether and desoxyrhapontigenin were determined in animals treated for 2 days with 100 μM of each compound in the culture medium. […] These concentrations were within the range of serum stilbene levels detected after dietary stilbene supplementation with human volunteers (approx. 2 μM) and rabbits (42.8 μM). […]
Uptake was determined for three stilbenes (desoxyrhapontigenin, pterostilbene and resveratrol-trimethylether) by measuring the steady-state levels of each stilbene in adult fem-1(hc17) hermaphrodites treated under the same conditions as those used for survival assays. […] Derivatized sample was analyzed for stilbenes by gas chromatography-mass spectrometry (GC-MS). […] Quantitation was performed from calibration curve of authentic stilbene samples. […]

COc1ccc(/C=C/c2cc(OC)cc(OC)c2)cc1 [Resveratrol-trimethylether, resveratrol-trimethylether]
Mean lifespan, Treated ([1]; Trial 1, 100 μM in medium, from day 0 of adulthood, 25°C, control 12.16 days): 9.7 days | Relative survival ([1]; Trial 1, 100 μM, treated vs control mean lifespan): 80% | Relative survival ([1]; Trial 4, 20 μM): 69% | Mean lifespan, Treated ([1]; Trial 4, 20 μM, control 11.26 days): 7.72 days | Relative survival ([1]; Trial 4, 40 μM): 69% | Mean lifespan, Treated ([1]; Trial 4, 40 μM, control 11.26 days): 7.72 days | Relative survival ([1]; Trial 4, 100 μM): 64% | Mean lifespan, Treated ([1]; Trial 4, 100 μM, control 11.26 days): 7.18 days | Relative survival ([1]; Trial 5, 5 μM): 102% | Mean lifespan, Treated ([1]; Trial 5, 5 μM, control 18.49 days): 18.83 days | Relative survival ([1]; Trial 5, 20 μM): 89% | Mean lifespan, Treated ([1]; Trial 5, 20 μM, control 18.49 days): 16.41 days | Relative survival ([1]; Trial 5, 100 μM): 82% | Mean lifespan, Treated ([1]; Trial 5, 100 μM, control 18.49 days): 15.18 days | Relative survival ([1]; Trial 6, 20 μM): 59% | Mean lifespan, Treated ([1]; Trial 6, 20 μM, control 15.32 days): 9.02 days | Relative survival ([1]; Trial 6, 40 μM): 52% | Mean lifespan, Treated ([1]; Trial 6, 40 μM, control 15.32 days): 7.98 days | Relative survival ([1]; Trial 6, 100 μM): 49% | Mean lifespan, Treated ([1]; Trial 6, 100 μM, control 15.32 days): 7.54 days | steady-state level relative to pterostilbene [2]: less than one-third the level of pterostilbene
